# Where a name gives a salt, the structure may show the parent alone.
# System: peripheral blood mononuclear cells (PBMCs) from healthy donors
# Experiment: IFN production by R848-activated PBMCs, quantified with twINNE luciferase reporter cell line
# Type: cell-based, human
# Settings: Homo sapiens, PBMC; read-out: IC50 of anti-inflammatory activity (IFN production by activated PBMCs)
# Method in brief: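 Healthy-donor PBMCs (4.10^6/mL, RPMI/10% FBS) were pre-treated with compound, then stimulated with R848 at 5 μg/mL for 24 h. Supernatants were put on twINNE cells, which carry luciferase under five ISREs, for 24 h, and Bright-Glo luminescence was read. IC50 values came from variable-slope dose-response fits.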
row,SMILES,IC50 [µM]
1,"CN1CCC(SC2=NC(C)(C)c3ccccc3N2)C1 (stereo not drawn) [Example 98, 4,4-dimethyl-2-((1-methylpyrrolidin-3-yl)thio)-1,4-dihydroquinazoline dihydrochloride]",> 32
2,"Clc1ccc2c(c1)CN1C(=N2)SC(Br)=C1CSC1=NCc2ccccc2N1 [Example 79, 2-bromo-7-chloro-3-(((1,4-dihydroquinazolin-2-yl)thio)methyl)-5H-thiazolo[2,3-b]quinazoline dihydrochloride]",≤ 10
3,"C1=C(CSC2=NCCc3ccccc3N2)N2Cc3ccccc3CN=C2S1 [Example 25, 3-(((4,5-dihydro-1H-benzo[d][1,3]diazepin-2-yl)thio)methyl)-5,10-dihydrobenzo[e]thiazolo[3,2-a][1,3]diazepine dihydrochloride]",≤ 10
4,"C1=C(CSC2=NCc3ccccc3N2)N2Cc3ccccc3CN=C2S1 [Example 11, 3-(((3,4-dihydroquinazolin-2-yl)thio)methyl)-5,10-dihydrobenzo[e]thiazolo[3,2-a][1,3]diazepine dihydrochloride]",≤ 10
5,"CC1(c2ccccc2)CN=C(SCC2=CSC3=Nc4ccc(Cl)cc4CN23)N1 (stereo not drawn) [Example 72, 7-chloro-3-(((5-methyl-5-phenyl-4,5-dihydro-1H-imidazol-2-yl)thio)methyl)-5H-thiazolo[2,3-b]quinazoline dihydrochloride]",≤ 10
6,"Fc1ccc2c(c1)CN=C(SCCCCN1CCCC1)N2 [Example 152, 6-fluoro-2-((4-(pyrrolidin-1-yl)butyl)thio)-1,4-dihydroquinazoline dihydrochloride]",10 to 32
7,"Cl.c1ccc2c(c1)CN=C(SCc1csc3nc4ccccc4n13)N2 [Example 96, 3-(((3,4-dihydroquinazolin-2-ylthio)methyl)benzo[4,5]imidazo[2,1-b]thiazole hydrochloride]",> 32
8,"Brc1ccc2c(c1)N=C1SC=C(CSC3=NCc4ccccc4N3)N1C2 [Example 70, 8-bromo-3-(((1,4-dihydroquinazolin-2-yl)thio)methyl)-5H-thiazolo[2,3-b]quinazoline dihydrochloride]",≤ 10
9,"CN1CCC(SC2=NCc3cc(Cl)ccc3N2)C1 (stereo not drawn) [Example 103, 6-chloro-2-((1-methylpyrrolidin-3-yl)thio)-1,4-dihydroquinazoline dihydrochloride]",≤ 10
10,"CC1(C)N=C(SCC2=CSC3=NCc4ccccc4CN23)Nc2ccccc21 [Example 21, 3-(((4,4-dimethyl-1,4-dihydroquinazolin-2-yl)thio)methyl)-5,10-dihydrobenzo[e]thiazolo[3,2-a][1,3]diazepine dihydrochloride]",≤ 10
11,"c1cncc(CSC2=NCc3ccccc3CN2)c1 [Example 193, 3-((pyridin-3-ylmethyl)thio)-2,5-dihydro-1H-benzo[e][1,3]diazepine]",> 32
12,"Fc1cccc2c1CN=C(SCC1=CSC3=NC(Cc4ccccc4)CN13)N2 (stereo not drawn) [Example 117, 6-benzyl-3-(((5-fluoro-1,4-dihydroquinazolin-2-yl)thio)methyl)-5,6-dihydroimidazo[2,1-b]thiazole dihydrochloride]",≤ 10
13,"CCCCN1CCN=C1SCC1=CSC2=NCc3ccccc3CN12 [Example 37, 3-(((1-butyl-4,5-dihydro-1H-imidazol-2-yl)thio)methyl)-5,10-dihydrobenzo[e]thiazolo[3,2-a][1,3]diazepine dihydrochloride]",≤ 10
14,"CN1CCCC1CSC1=NCC(Cc2ccccc2)N1 (stereo not drawn) [Example 53, 5-benzyl-2-(((1-methylpyrrolidin-2-yl)methyl)thio)-4,5-dihydro-1H-imidazole dihydrochloride]",10 to 32
15,"Fc1cccc(CC2CN3C(CSC4=NCc5ccccc5N4)=CSC3=N2)c1 (stereo not drawn) [Example 121, 3-(((1,4-dihydroquinazolin-2-yl)thio)methyl)-6-(3-fluorobenzyl)-5,6-dihydroimidazo[2,1-b]thiazole dihydrochloride]",≤ 10
16,"CCN1CCC(SC2=NCc3ccccc3N2)C1 (stereo not drawn) [Example 104, 2-((1-ethylpyrrolidin-3-yl)thio)-1,4-dihydroquinazoline dihydrochloride]",≤ 10
17,"C1=C(CSC2=NCc3ccccc3N2)N2CCc3ccccc3N=C2S1 [Example 35, 3-(((3,4-dihydroquinazolin-2-yl)thio)methyl)-5,6-dihydrobenzo[d]thiazolo[3,2-a][1,3]diazepine dihydrochloride]",≤ 10
18,"c1ccc2c(c1)CN=C(SCCCN1CCCC1)NC2 [Example 194, 3-((3-(pyrrolidin-1-yl)propyl)thio)-2,5-dihydro-1H-benzo[e][1,3]diazepine dihydrochloride]",> 32
19,"Clc1ccc2c(c1)NC(SCCCCN1CCCC1)=NC2 [Example 150, 7-chloro-2-((4-(pyrrolidin-1-yl)butyl)thio)-1,4-dihydroquinazoline dihydrochloride]",≤ 10
20,"c1ccc(CC2CN=C(SCCN3CCCCC3)N2)cc1 (stereo not drawn) [Example 50, 1-(2-((5-benzyl-4,5-dihydro-1H-imidazol-2-yl)thio)ethyl)piperidine dihydrochloride]",> 32

row,SMILES,IC50 [µM]
1,"Cc1ccc(CC2CN3C(CSC4=NCc5ccccc5N4)=CSC3=N2)cc1 (stereo not drawn) [Example 122, 3-(((1,4-dihydroquinazolin-2-yl)thio)methyl)-6-(4-methylbenzyl)-5,6-dihydroimidazo[2,1-b]thiazole dihydrochloride]",≤ 10
2,"Fc1ccc2c(c1)NC(SCC1=CSC3=NC(Cc4ccccc4)CN13)=NC2 (stereo not drawn) [Example 89, 6-benzyl-3-(((7-fluoro-1,4-dihydroquinazolin-2-yl)thio)methyl)-5,6-dihydroimidazo[2,1-b]thiazole dihydrochloride]",≤ 10
3,"CC1(C)CN=C(SCCCCN2CCCC2)N1 [Example 172, 4,4-dimethyl-2-((4-(pyrrolidin-1-yl)butyl)thio)-4,5-dihydro-1H-imidazole dihydrochloride]",> 32
4,"Clc1ccc2c(c1)CN1C(CSC3=NCC(Cc4ccccc4)N3)=CSC1=N2 (stereo not drawn) [Example 20, 3-(((5-benzyl-4,5-dihydro-1H-imidazol-2-yl)thio)methyl)-7-chloro-5H-thiazolo[2,3-b]quinazoline dihydrochloride]",≤ 10
5,"C1CCC2NC(SCCN3CCCC3)=NCC2C1 (stereo not drawn) [Example 184, 2-((2-(pyrrolidin-1-yl)ethyl)thio)-1,4,4a,5,6,7,8,8a-octahydroquinazoline dihydrochloride]",> 32
6,"c1ccc(CC2CN=C(SCCCCN3CCCC3)N2)cc1 (stereo not drawn) [Example 181, 5-benzyl-2-((4-(pyrrolidin-1-yl)butyl)thio)-4,5-dihydro-1H-imidazole dihydrochloride]",> 32
7,"C1=C(CSC2=NCc3ccccc3N2)N2CC(CCc3ccccc3)N=C2S1 (stereo not drawn) [Example 126, 3-(((1,4-dihydroquinazolin-2-yl)thio)methyl)-6-phenethyl-5,6-dihydroimidazo[2,1-b]thiazole dihydrochloride]",≤ 10
8,"O=C(CCCSC1=NCc2ccccc2N1)N1CCCC1 [Example 147, 4-((1,4-dihydroquinazolin-2-yl)thio)-1-(pyrrolidin-1-yl)butan-1-one hydrochloride]",> 32
9,"CC1CCCN1CCSC1=NCc2ccccc2N1 (stereo not drawn) [Example 130, 2-((2-(2-methylpyrrolidin-1-yl)ethyl)thio)-1,4-dihydroquinazoline dihydrochloride]",≤ 10
10,"C1CCNC(SCCCCN2CCCC2)=NC1 [Example 178, 2-((4-(pyrrolidin-1-yl)butyl)thio)-4,5,6,7-tetrahydro-1H-1,3-diazepine dihydrochloride]",> 32
11,"Clc1ccc2c(c1)CN1C(CSC3=NCc4cc(Cl)ccc4N3)=CSC1=N2 [Example 44, 7-chloro-3-(((6-chloro-1,4-dihydroquinazolin-2-yl)thio)methyl)-5H-thiazolo[2,3-b]quinazoline dihydrochloride]",> 32
12,"CCCCC1CN=C(SCC2=CSC3=Nc4ccc(Cl)cc4CN23)N1 (stereo not drawn) [Example 41, 3-(((5-butyl-4,5-dihydro-1H-imidazol-2-yl)thio)methyl)-7-chloro-5H-thiazolo[2,3-b]quinazoline dihydrochloride]",≤ 10
13,"C1=C(CSC2=NCC(Cc3ccccc3)N2)N2Cc3ccccc3N=C2S1 (stereo not drawn) [Example 33, 3-(((5-benzyl-4,5-dihydro-1H-imidazol-2-yl)thio)methyl)-5H-thiazolo[2,3-b]quinazoline dihydrochloride]",≤ 10
14,"C1=C(CSC2=NCc3ccccc3N2)N2CC(C3CCCCC3)N=C2S1 (stereo not drawn) [Example 15, 6-cyclohexyl-3-(((3,4-dihydroquinazolin-2-yl)thio)methyl)-5,6-dihydroimidazo[2,1-b]thiazole dihydrochloride]",≤ 10
15,"c1ccc(N2CCC(SC3=NCc4ccccc4N3)C2)cc1 (stereo not drawn) [Example 101, 2-((1-phenylpyrrolidin-3-yl)thio)-1,4-dihydroquinazoline hydrochloride]",10 to 32
16,"CC1(C)CN2C(CSC3=NCc4ccc(Cl)cc4N3)=CSC2=N1 [Example 6, 3-(((7-chloro-1,4-dihydroquinazolin-2-yl)thio)methyl)-6,6-dimethyl-5,6-dihydroimidazo[2,1-b]thiazole dihydrochloride]",≤ 10
17,"Cc1cccc(CC2CN3C(CSC4=NCc5ccccc5N4)=CSC3=N2)c1 (stereo not drawn) [Example 112, 3-(((1,4-dihydroquinazolin-2-yl)thio)methyl)-6-(3-methylbenzyl)-5,6-dihydroimidazo[2,1-b]thiazole dihydrochloride]",≤ 10
18,"C1=C(CSC2=NCc3ccccc3N2)N2Cc3cccnc3N=C2S1 [Example 28, 3-(((3,4-dihydroquinazolin-2-yl)thio)methyl)-5H-pyrido[2,3-d]thiazolo[3,2-a]pyrimidine trihydrochloride]",≤ 10
19,"C1=C(CSC2=NCc3ccccc3N2)N2C(=Nc3ccccc3C2c2ccccc2)S1 (stereo not drawn) [Example 43, 3-(((3,4-dihydroquinazolin-2-yl)thio)methyl)-5-phenyl-5H-thiazolo[2,3-b]quinazoline dihydrochloride]",≤ 10

# Reference: US20240018125A1, “CYCLIC ISOTHIOUREA DERIVATIVES AS CXCR4 MODULATORS” (ERMIUM THERAPEUTICS, priority 2020, published 2024)
